This is an account of results in patent publication US4937240A, “Thienotriazolodiazepine compounds and pharmaceutical uses thereof” (Yoshitomi Pharmaceutical Industries, Ltd., priority 1988, dated 1990).

For one test, the system named is PAF. To be noted: literature; cited from earlier work.
Test [1] has as its system PAF-induced lethal shock. Nature of the test: Effect on PAF-induced lethal shock in mice (i.v.). Type of test: in vivo. The following applies: Mus musculus, male ICR mice, 80 μg/kg PAF i.v. 1 hour after intravenous administration, observed 24 hours. As for the experimental part: (§1) In order to determine PAF-antagonistic activity of the compounds of the present invention, the inhibitory effects of PAF-induced lethal shock in mice were investigated by oral administration and intravenous administration.
Experiment 2: Effect on PAF-induced lethal shock in mice (i.v.)
The experiment was carried out according to the method of Young et al. as described in Experiment 1. Groups of 8 to 15 male ICR mice (Charles River) weighing 25-30 g were used. 80 μg/kg of PAF (Serdary Research Lab.) solution was intravenously administered in a lateral a tail vein 1 hour after the intravenous administration of test compound ([…]). […] Results were given as ED50 (mg/kg) in Table 2.

Test [2] concerns PAF-induced lethal shock. The experiment in a line: Effect on PAF-induced lethal shock in mice (p.o.). Format: in vivo. To be noted: Mus musculus, male ICR mice, 80 μg/kg PAF i.v. 1 hour after oral administration, observed 24 hours. As for the experimental part:
as §1
Experiment 1: Effect on PAF-induced lethal shock in mice (p.o.)
The experiment was carried out according to the method of Young et al. described in Prostaglandins, vol. 30, p. 545 (1985). Groups of 9 to 15 male ICR mice (Charles River) weighing 25-30 g were used. 80 μg/kg of PAF (Serdary Research Lab.) solution was intravenously administered in a lateral tail vein 1 hour after the oral administration of test compound (0.1 ml/10 g). […] Results were given as ED50 (mg/kg) in Table 1.

Consider `Cc1nnc2n1-c1sc(CCC(=O)N3CCOCC3)cc1C(c1ccccc1Cl)=NC2` [4-(2-chlorophenyl)-9-methyl-6H-thieno[3,2-f][1,2,4]triazolo[] [4-(2-chlorophenyl)-9-methyl-6H-thieno[3,2-f][1,2,4]triazolo[4,3-a][1,4]diazepine-2-propionic acid morpholide], for which the “antagonistic activity on PAF” value in the test on PAF is on record as “exhibit antagonistic activity on PAF”. `Cc1nnc2n1-c1sc(CCC(=O)N3CCOCC3)cc1C(c1ccccc1Cl)=NC2C` (centres unmarked) [A, 3-[4-(2-chlorophenyl)-6,9-dimethyl-6H-thieno[3,2-f][1,2,4]triazolo[4,3-a][1,4]diazepin-2-yl]propionic acid morpholide]: the ED50 was found to be 0.021 mg/kg with PAF-induced lethal shock [1] and 0.065 mg/kg in the test on PAF-induced lethal shock [2]. In the case of `Cc1nnc2n1-c1sc3c(c1C(c1ccccc1Cl)=NC2C)CC(C(=O)N1CCOCC1)C3` (centres unmarked) [B, 5-(2-chlorophenyl)-3,4-dihydro-7,10-dimethyl-3-morpholinocarbonyl-2H,7H-cyclopenta[4,5]thieno[3,2-f][1,2,4]triazolo[4,3-a][1,4]diazepine], in the test on PAF-induced lethal shock [2], the 50% effective dose (ED50) was determined as 0.55 mg/kg.

Turning to `Cc1nnc2n1-c1sc3c(c1C(c1ccccc1Cl)=NC2C)CC(CN1CCOCC1)C3` (centres unmarked) [C, 5-(2-chlorophenyl)-3,4-dihydro-7,10-dimethyl-3-morpholinomethyl-2H,7H-cyclopenta[4,5]thieno[3,2-f][1,2,4]triazolo[4,3-a][1,4]diazepine 1/2 hydrate], the 50% effect level with PAF-induced lethal shock [2] (ED50) was put at a dose of 0.2 mg/kg. On the same count and under the same terms, as for `Cc1nnc2n1-c1sc(CCC(=O)N3CCN(CC(C)C)CC3)cc1C(c1ccccc1Cl)=NC2C` (centres unmarked) [D, 3-[4-(2-chlorophenyl)-6,9-dimethyl-6H-thieno[3,2-f][1,2,4]triazolo[4,3-a][1,4]diazepin-2-yl]propionic acid 4-isobutyl-1-piperazide], the figure is 0.3 mg/kg; as for `CCCN(CCC)C(=O)CCc1cc2c(s1)-n1c(C)nnc1C(C)N=C2c1ccccc1Cl` (centres unmarked) [E, 3-[4-(2-chlorophenyl)-6,9-dimethyl-6H-thieno[3,2-f][1,2,4]triazolo[4,3-a][1,4]diazepin-2-yl]propionic acid N,N-dipropylamide], 0.14 mg/kg. As to `Cc1nnc2n1-c1sc3c(c1C(c1ccccc1Cl)=NC2)CC(CN1CCOCC1)C3` (centres unmarked) [STY 2108, 5-(2-chlorophenyl)-3,4-dihydro-10-methyl-3-morpholinomethyl-2H,7H-cyclopenta[4,5]thieno[3,2-f][1,2,4]triazolo[4,3-a][1,4]diazepine], in the test on PAF, the “antagonistic activity on PAF” value is recorded as “exhibit more potent PAF-antagonistic activity”. With `Cc1nnc2n1-c1sc(CCC(=O)N3CCOCC3)cc1C(c1ccccc1Cl)=NC2` [WEB 2086, 3-[4-(2-chlorophenyl)-9-methyl-6H-thieno[3,2-f][1,2,4]triazolo[4,3-a][1,4]diazepin-2-yl]propionic acid morpholide, reference compound], the ED50 with PAF-induced lethal shock [1] came out at 0.125 mg/kg; in the test on PAF-induced lethal shock [2] it was 1.6 mg/kg. In addition, the “antagonistic activity on PAF” value in the test on PAF is “exhibit more potent PAF-antagonistic activity”.

In general, ED50 refers to the dose that gives a 50% effect, or the effect in half of the subjects. High values mean weaker potency, low ones greater potency.
